Test results: patent US9464092B2, “Transient protection of normal cells during chemotherapy” (G1 Therapeutics, Inc., priority 2013, dated 2016)
Like-named read-outs stand apart in the source and are kept apart here.

Assays:
[1] = tested on: RB-negative SCLC cell lines (H69, H82, H209, H345, NCI417, or SHP-77); experiment: EdU proliferation, RB-negative SCLC cell lines; conditions: 24 hours
CDK6/CyclinD3 = CDK6/CyclinD3 (Homo sapiens (Human), UniProt Q00534); experiment: CDK6/CyclinD3 kinase assay (Nanosyn, Caliper microfluidic); format: biochemical; conditions: Table 3; read-out: CDK6/CycD3 IC50
Chain of CDK6/CyclinD3 (Q00534 whole entry, species assumed): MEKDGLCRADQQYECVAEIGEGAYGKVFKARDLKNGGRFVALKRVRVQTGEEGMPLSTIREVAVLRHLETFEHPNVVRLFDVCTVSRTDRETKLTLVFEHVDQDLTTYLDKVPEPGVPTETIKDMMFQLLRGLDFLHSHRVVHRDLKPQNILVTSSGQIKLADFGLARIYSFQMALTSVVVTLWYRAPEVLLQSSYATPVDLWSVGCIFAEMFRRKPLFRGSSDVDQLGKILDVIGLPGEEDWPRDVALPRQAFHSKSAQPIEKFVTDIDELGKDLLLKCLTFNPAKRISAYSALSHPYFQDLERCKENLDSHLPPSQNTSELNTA
Chain of CDK6/CyclinD3 (P30281 whole entry partner, species assumed): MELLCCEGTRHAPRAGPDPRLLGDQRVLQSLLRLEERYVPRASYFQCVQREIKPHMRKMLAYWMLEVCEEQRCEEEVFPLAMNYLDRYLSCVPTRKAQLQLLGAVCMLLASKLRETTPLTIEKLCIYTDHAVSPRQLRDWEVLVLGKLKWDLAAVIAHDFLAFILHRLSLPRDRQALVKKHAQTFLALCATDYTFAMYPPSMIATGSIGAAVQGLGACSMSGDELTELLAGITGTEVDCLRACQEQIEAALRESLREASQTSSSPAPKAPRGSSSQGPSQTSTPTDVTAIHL

CDK2/CyclinA = CDK2/CyclinA (Homo sapiens (Human), UniProt P24941); experiment: CDK2/CyclinA kinase assay (Nanosyn, Caliper microfluidic); format: biochemical; conditions: for IC50: read-out: CDK2/CycA IC50
Procedure, shortened: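 Each compound was run as a 12-point single-replicate titration, with staurosporine as reference, using microfluidic (Caliper) separation of phosphorylated peptide.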

CDK2/CyclinE = CDK2/CyclinE (Homo sapiens (Human), UniProt P24941); experiment: CDK2/CyclinE kinase assay (Nanosyn, Caliper microfluidic); format: biochemical; conditions: for IC50: read-out: CDK2/CycE IC50
[2] = tested on: RB-intact, Cdk4/6-dependent cell line (WM2664 or tHS68); experiment: EdU proliferation, RB-intact Cdk4/6-dependent cell line; conditions: 24 hours
CDK4/CyclinD1 = CDK4/CyclinD1 (Homo sapiens (Human), UniProt P11802); experiment: CDK4/CyclinD1 kinase assay (Nanosyn, Caliper microfluidic); format: biochemical; conditions: read-out: CDK4/CycD1 IC50
Chain of CDK4/CyclinD1 (P11802 whole entry, species assumed): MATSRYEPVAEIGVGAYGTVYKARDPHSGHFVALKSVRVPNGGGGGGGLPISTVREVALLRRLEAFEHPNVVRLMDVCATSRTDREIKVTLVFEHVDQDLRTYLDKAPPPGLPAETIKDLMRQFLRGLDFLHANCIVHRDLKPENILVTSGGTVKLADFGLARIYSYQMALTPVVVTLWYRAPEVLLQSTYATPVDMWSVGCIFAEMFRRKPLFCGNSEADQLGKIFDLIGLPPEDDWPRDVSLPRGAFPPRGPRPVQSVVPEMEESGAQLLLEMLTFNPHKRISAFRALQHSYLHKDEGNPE
Chain of CDK4/CyclinD1 (P24385 whole entry partner, species assumed): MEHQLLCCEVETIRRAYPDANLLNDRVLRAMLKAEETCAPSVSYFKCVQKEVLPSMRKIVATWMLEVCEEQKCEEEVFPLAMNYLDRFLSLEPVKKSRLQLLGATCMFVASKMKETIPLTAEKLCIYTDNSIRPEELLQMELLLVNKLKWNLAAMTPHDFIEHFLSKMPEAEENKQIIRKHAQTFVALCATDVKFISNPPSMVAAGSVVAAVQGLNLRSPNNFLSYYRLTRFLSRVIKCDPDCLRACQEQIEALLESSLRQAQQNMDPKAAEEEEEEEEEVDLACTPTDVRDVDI

bone marrow progenitors = experiment: Carboplatin-induced cytotoxicity in bone marrow (EdU); format: in vivo, FVB/n mice; conditions: 150 mg/kg oral gavage plus 90 mg/kg carboplatin i.p., 24 hours
Procedure: To assess the effect of transient CDK4/6 inhibition by Compound GG on carboplatin-induced cytotoxicity in the bone marrow, FVB/n mice (n=3 per group) were treated with vehicle control, 90 mg/kg carboplatin by intraperitoneal injection, or 150 mg/kg Compound GG by oral gavage plus 90 mg/kg carboplatin by intraperitoneal injection. 24 hours after treatment bone marrow was harvested and the percent of cycling bone marrow progenitors was measured by EdU incorporation as explained earlier. […] EdU incorporation in control animals was normalized to 100% and compared to EdU incorporation for bone marrow from carboplatin treated animals or carboplatin and Compound GG treated animals.

HSPCs (bone marrow) = experiment: HSPC proliferation in bone marrow by EdU incorporation after oral gavage; format: in vivo, mice
Procedure: Mice were then sacrificed at the indicated times (0, 12, 24, 36, or 48 hours following compound administration), and bone marrow was harvested (n=3 mice per time point), as previously described (Johnson et al. J. Clin. Invest. (2010) 120(7), 2528-2536). Four hours before the bone marrow was harvested, mice were treated with 100 μg of EdU by intraperitoneal injection (Invitrogen). Bone marrow mononuclear cells were harvested and immunophenotyped using previously described methods and percent EdU positive cells were then determined (Johnson et al. J. Clin. Invest. (2010) 120(7), 2528-2536). In brief, HSPCs were identified by expression of lineage markers (Lin-), Sca1 (S+), and c-Kit (K+).
Four hours before animals were sacrificed and the bone marrow was harvested, mice were treated with 100 μg of EdU by intraperitoneal injection. Three mice per group were sacrificed at 12 hours and the remaining three animals per group were sacrificed at 24 hours. Results are shown in FIG. 6A as the ratio of EdU positive cells for treated animals at 12 or 24 hour time points compared to control.
Further experiments were completed with Compound T examining dose response and longer periods of compound treatment. […] […].
Both compounds were administered at 150 mg/kg by oral gavage. One hour prior to harvesting bone marrow, EdU was IP injected to label cycling cells. Bone marrow was harvested at 12, 24, 36, and 48 hours after compound treatment and the percentage of EdU positive HSPC cells was determined at each time point.

[3] = Mouse pharmacokinetics (oral gavage / intravenous); format: in vivo, mice; conditions: mouse
[4] = tested on: H69 (human small cell lung cancer - Rb-negative) cells; experiment: Cellular proliferation assay (CellTiter-Glo), H69; format: cell-based; conditions: NCI-H69, 96 h, four days
Procedure: (§1) Cellular proliferation assays were conducted using the following Rb-negative cancer cell lines: H69 (human small cell lung cancer—Rb-negative) cells or A2058 (human metastatic melanoma cells—Rb-negative). These cells were seeded in Costar (Tewksbury, Mass.) 3093 96 well tissue culture treated white walled/clear bottom plates. Cells were treated with the compounds of Table 1 as nine point dose response dilution series from 10 uM to 1 nM. Cells were exposed to compounds and then cell viability was determined after either four (H69) or six (A2058) days as indicated using the CellTiter-Glo® luminescent cell viability assay (CTG; Promega, Madison, Wis., United States of America) following the manufacturer's recommendations. Plates were read on BioTek (Winooski, Vt.) Syngergy2 multi-mode plate reader. The Relative Light Units (RLU) were plotted as a result of variable molar concentration and data was analyzed using Graphpad (LaJolla, Calif.) Prism 5 statistical software to determine the EC50 for each compound.

[5] = tested on: HS68 cells (human skin fibroblast cell line (Rb-positive)); experiment: G1 arrest (cellular G1 and S-phase) assay; format: cell-based; conditions: Homo sapiens, Hs68, HS68 cells
Procedure: For determination of cellular fractions in various stages of the cell cycle following various treatments, HS68 cells (human skin fibroblast cell line (Rb-positive)) were stained with propidium iodide staining solution and run on Dako Cyan Flow Cytometer. The fraction of cells in G0-G1 DNA cell cycle versus the fraction in S-phase DNA cell cycle was determined using FlowJo 7.2 0.2 analysis.
The compounds listed in Table 1 were tested for their ability to arrest HS68 cells at the G1 phase of the cell cycle.

[6] = tested on: A2058 (human metastatic melanoma cells - Rb-negative); experiment: Cellular proliferation assay (CellTiter-Glo), A2058; format: cell-based; conditions: A2058, 144 h, six days
Procedure: as §1

For `CC(C)N1CCN(c2ccc(Nc3ncc4cc5n(c4n3)C3(CCCCC3)CNC5=O)nc2)CC1` [Compound GG, 2′-((5-(4-isopropylpiperazin-1-yl)pyridin-2-yl)amino)-7′,8′-dihydro-6′H-spiro[cyclohexane-1,9′-pyrazino[1′,2′:1,5]pyrrolo[2,3-d]pyrimidin]-6′-one], the “effect on proliferation (EdU, percent of cells in S-phase)” value [1] was “does not affect the growth of the Rb-negative cell lines”, the IC50 (CDK6/CyclinD3) was 4.7 nM and the “Fold Selectivity (CDK2/CycA/CDK4)” value (CDK2/CyclinA; Table 2) was 1425. For the same compound, the IC50 (CDK2/CyclinA; Table 2) was 1510 nM, the IC50 (CDK2/CyclinA; Table 3) was 1510 nM and the “Fold Selectivity CDK2/CDK4” value (CDK2/CyclinE; CDK2/CycE IC50 divided by CDK4/CycD1 IC50) was 3377. The “Fold Selectivity (CDK2/CycE/CDK4)” value (CDK2/CyclinE; Table 2) was 3377, the IC50 (CDK2/CyclinE; Table 2) was 3580 nM and the IC50 (CDK2/CyclinE; Table 3) was 3580 nM. The “effect on proliferation (EdU, percent of cells in S-phase)” value [2] was “inhibits the Rb-positive cell line (tHS68)”, the IC50 (CDK4/CyclinD1; Table 2) was 1 nM and the IC50 (CDK4/CyclinD1; Table 3) was 1.06 nM. For the same compound, the “protection of cycling bone marrow progenitors (EdU)” value (bone marrow progenitors) was “significant protection of bone marrow progenitors”, the “EdU incorporation into HSPCs at 12 and 24 hours compared to control” value (HSPCs (bone marrow); 150 mg/kg oral gavage) was “reduction in EdU incorporation at 12 hours which was starting to return to normal at 24 hours” and the “G1-arrest of bone marrow stem cells (HSPC)” value (HSPCs (bone marrow); oral gavage, mice) was “dose dependent, transient, and reversible G1-arrest”. It also gave an F [3] of 52%, a half-life ([3]; plasma, po, 30 mg/kg, 30 mg/kg oral gavage, read-out: t1/2 p.o. (converted)) of 3.5 h and a half-life ([3]; plasma, po, 30 mg/kg, read-out: plasma half-life following oral administration) of 3 to 5 h. The bioavailability ([3]; plasma, po, 30 mg/kg, read-out: oral bioavailability (F (%))) was 52 to 80%, the AUC(0-inf) ([3]; plasma, iv, 10 mg/kg i.v.) was 1.1 µM·h and the clearance ([3]; plasma, iv, 10 mg/kg i.v.) was 82 mL/min/kg. For the same compound, the Vd ([3]; plasma, iv, 10 mg/kg i.v., read-out: Vss) was 7.5 L/kg, the AUC ([3]; plasma, 30 mg/kg oral gavage) was 1.9 µM·h and the Cmax ([3]; plasma, 30 mg/kg oral gavage) was 1900 nM. It also gave a Tmax ([3]; plasma, 30 mg/kg oral gavage) of 1 h.

For `CN1CCN(C(=O)c2ccc(Nc3ncc4cc5n(c4n3)C3(CCCC3)CNC5=O)nc2)CC1` [BBB], the EC50 [4] was greater than 3000 nM, the “Fold Selectivity (CDK2/CycA/CDK4)” value (CDK2/CyclinA; Table 2) was 31 and the IC50 (CDK2/CyclinA; Table 2) was 85 nM. For the same compound, the “Fold Selectivity (CDK2/CycE/CDK4)” value (CDK2/CyclinE; Table 2) was 68, the IC50 (CDK2/CyclinE; Table 2) was 187 nM and the IC50 (CDK4/CyclinD1; Table 2) was 2.8 nM. For the same compound, the EC50 [5] was 230 nM and the EC50 [6] was greater than 3000 nM.
